Laboratory results: ChEMBL document CHEMBL1158129, “Cyclic heptapeptides from the Jamaican sponge Stylissa caribica” (J Nat Prod, 2006)
Converted amounts (≈) assume the structure as drawn. The source made the active and inactive calls. No cut-off for these calls is given here. Peptide text beside a SMILES is read from it.

Columns and labels:
Aspergillus fumigatus = assay: Antifungal activity against Aspergillus fumigatus; type: functional, organism-based
Plasmodium falciparum [1] = assay: Antimalarial activity against Plasmodium falciparum W2; type: functional, organism-based
Microglia = assay: Antiinflammatory activity against rat neonatal microglia; type: functional, cell-based
[2] = system: Human immunodeficiency virus 1; assay: Antiviral activity against HIV1 in human PBM cells; type: functional, organism-based
[3] = system: Mycobacterium tuberculosis; assay: Antimycobacterial activity against Mycobacterium tuberculosis; type: functional, organism-based
Pseudomonas aeruginosa = assay: Antibacterial activity against Pseudomonas aeruginosa; type: functional, organism-based
[4] = system: Mycobacterium intracellulare; assay: Antibacterial activity against Mycobacterium intracellular; type: functional, organism-based
Staphylococcus aureus = assay: Antibacterial activity against Staphylococcus aureus; type: functional, organism-based
Cryptococcus neoformans = assay: Antifungal activity against Cryptococcus neoformans; type: functional, organism-based
Plasmodium falciparum [5] = assay: Antimalarial activity against Plasmodium falciparum D6; type: functional, organism-based
Candida albicans = assay: Antifungal activity against Candida albicans; type: functional, organism-based
Leishmania donovani = assay: Antileishmanial activity against Leishmania donovani; type: functional, organism-based
[6] = system: Mycobacterium tuberculosis; assay: Antimycobacterial activity against Mycobacterium tuberculosis at 128 ug/mL; type: functional
Bel-7402 = assay: Cytotoxicity against human Bel-7402; type: functional; details: read-out: ED50 (the source's name)

SMILES	Activity (Aspergillus fumigatus)	Activity (Plasmodium falciparum [1])	Activity (Microglia)	Activity [2]	Activity [3]	Activity (Pseudomonas aeruginosa)	Activity [4]	Activity (Staphylococcus aureus)	Activity (Cryptococcus neoformans)	Activity (Plasmodium falciparum [5])	Activity (Candida albicans)	Activity (Leishmania donovani)	inhibition at 128 µg/mL [6]	IC50 (Plasmodium falciparum [5])	EC50 (Bel-7402)	Activity [6]	IC50 (Cryptococcus neoformans)
CC[C@H](C)[C@@H]1NC(=O)[C@@H]2CCCN2C(=O)[C@H](Cc2ccccc2)NC(=O)[C@@H]2CCCN2C(=O)[C@@H]2CCCN2C(=O)[C@H](Cc2ccc(O)cc2)NC(=O)[C@@H]2CCCN2C1=O (cyclo(FPIPYPP))	inactive	inactive	inactive	inactive	inactive	inactive	inactive	inactive	inactive	inactive	inactive	–	–	–	–	–	–
CC[C@H](C)[C@@H]1NC(=O)[C@@H]2CCCN2C(=O)[C@H](Cc2ccc(O)cc2)NC(=O)[C@@H]2CCCN2C(=O)[C@H](CC(C)C)NC(=O)[C@@H]2CCCN2C(=O)[C@H](Cc2ccccc2)NC1=O (cyclo(FPLPYPI))	inactive	inactive	inactive	inactive	inactive	inactive	inactive	inactive	inactive	inactive	inactive	–	–	–	–	–	–
Nc1ncc(/C=C/CNC(=O)c2cc(Br)c(Br)[nH]2)[nH]1 [OROIDIN]	–	–	–	inactive	–	–	–	–	inactive	–	–	inactive	71%	1.2 mg/L (≈ 3.08 µM)	–	–	–
CC(C)C[C@@H]1NC(=O)[C@H]([C@@H](C)O)NC(=O)[C@@H]2CCCN2C(=O)CNC(=O)[C@H](Cc2ccccc2)NC(=O)[C@@H]2CCCN2C(=O)[C@H](Cc2c[nH]c3ccccc23)NC1=O [PHAKELLISTATIN 13] (cyclo(FGPTLWP))	–	–	–	–	–	–	–	–	–	–	–	–	–	–	< 0.01 mg/L	–	–
Nc1nc([C@H]2[C@H](CNC(=O)c3cc(Br)c[nH]3)[C@@H](CNC(=O)c3cc(Br)c[nH]3)[C@@H]2c2c[nH]c(N)n2)c[nH]1 [SCEPTRIN]	–	–	–	inactive	–	–	–	–	–	–	–	inactive	–	–	–	inactive	3.5 mg/L (≈ 5.64 µM)
Nc1ncc(C2=CCNC(=O)c3[nH]c(Br)c(Br)c32)[nH]1 [STEVENSINE]	–	–	–	inactive	–	–	–	–	inactive	–	–	inactive	95%	1.8 mg/L (≈ 4.65 µM)	–	–	–
